Laboratory results as given in ChEMBL document CHEMBL1201862, “PubChem BioAssay data set” (2004).
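Five compound concentrations were applied to cells in 96-well plates for 48 hours; endpoints were derived by simple linear interpolation of the resulting dose-response curve. GI50 marks 50% less growth.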 Active and inactive are the calls of the source. No stated cut-off is given here; in the data, active = GI50 up to about 1.1 µM and inactive = higher.

Legend:
Experiment in all cases: NCI-60 cell line screen, 48 h
M14 = tested on: M14
HCC 2998 = tested on: HCC 2998
U-251 = tested on: U-251
HCT-116 = tested on: HCT-116
HCT-15 = tested on: HCT-15
MOLT-4 = tested on: MOLT-4
MCF7 = tested on: MCF7
PC-3 = tested on: PC-3
BT-549 = tested on: BT-549
OVCAR-8 = tested on: OVCAR-8
ACHN = tested on: ACHN
Hs-578T = tested on: Hs-578T
MDA-MB-231 = tested on: MDA-MB-231
HT-29 = tested on: HT-29
UO-31 = tested on: UO-31
SNB-19 = tested on: SNB-19
SK-MEL-28 = tested on: SK-MEL-28
T47D = tested on: T47D
NCI-H226 = tested on: NCI-H226
SF-295 = tested on: SF-295
OVCAR-5 = tested on: OVCAR-5
786-0 = tested on: 786-0
NCI-H522 = tested on: NCI-H522
Malme-3M = tested on: Malme-3M
SR = tested on: SR
LOX IMVI = tested on: LOX IMVI
CCRF-CEM = tested on: CCRF-CEM
UACC-62 = tested on: UACC-62
HL-60 = tested on: HL-60
KM12 = tested on: KM12
TK-10 = tested on: TK-10
A549 = tested on: A549
SF-539 = tested on: SF-539
NCI-H23 = tested on: NCI-H23
SF-268 = tested on: SF-268
IGROV-1 = tested on: IGROV-1
OVCAR-4 = tested on: OVCAR-4
SK-MEL-2 = tested on: SK-MEL-2
NCI-H460 = tested on: NCI-H460
DU-145 = tested on: DU-145
K562 = tested on: K562
RXF 393 = tested on: RXF 393
COLO 205 = tested on: COLO 205
HOP-62 = tested on: HOP-62
SN12C = tested on: SN12C
A498 = tested on: A498
NCI/ADR-RES = tested on: NCI/ADR-RES
SNB-75 = tested on: SNB-75
SW-620 = tested on: SW-620
UACC-257 = tested on: UACC-257
EKVX = tested on: EKVX
MDA-MB-435 = tested on: MDA-MB-435
CAKI-1 = tested on: CAKI-1
SK-OV-3 = tested on: SK-OV-3
MDA-N = tested on: MDA-N
SK-MEL-5 = tested on: SK-MEL-5
RPMI-8226 = tested on: RPMI-8226
OVCAR-3 = tested on: OVCAR-3
HOP-92 = tested on: HOP-92

Measured: GI50

COc1cc2c(c(OC)c1OC)-c1ccc(SC)c(=O)cc1[C@@H](O)CC2
0.000605 µM: HCT-15
active: M14 0.000333 µM | HCC 2998 0.00122 µM | U-251 0.000378 µM | HCT-116 0.000381 µM | MOLT-4 0.00108 µM | MCF7 0.000386 µM | PC-3 0.000353 µM | BT-549 0.00168 µM | OVCAR-8 0.00107 µM | ACHN 0.0011 µM | Hs-578T 0.000261 µM | MDA-MB-231 0.00115 µM | HT-29 0.000294 µM | UO-31 0.0208 µM | SNB-19 0.00104 µM | SK-MEL-28 0.0222 µM | T47D > 1 µM | NCI-H226 0.000703 µM | SF-295 0.000225 µM | OVCAR-5 0.0069 µM | 786-0 0.000834 µM | NCI-H522 0.00065 µM | Malme-3M 0.00021 µM | SR 0.00258 µM | LOX IMVI 0.00078 µM | CCRF-CEM 0.00031 µM | UACC-62 0.000469 µM | HL-60 0.000269 µM | KM12 0.000234 µM | TK-10 > 1 µM | A549 0.000895 µM | SF-539 0.000356 µM | NCI-H23 0.000803 µM | SF-268 0.00128 µM | IGROV-1 0.00067 µM | OVCAR-4 > 1 µM | SK-MEL-2 0.00367 µM | NCI-H460 0.000586 µM | DU-145 0.000665 µM | K562 0.00948 µM | RXF 393 0.000317 µM | COLO 205 0.000408 µM | HOP-62 0.000834 µM | SN12C 0.00265 µM | A498 0.0305 µM | NCI/ADR-RES 0.00253 µM | SNB-75 0.01 µM | SW-620 0.000333 µM | UACC-257 0.0252 µM | EKVX 0.000748 µM | MDA-MB-435 0.000122 µM | CAKI-1 0.00166 µM | SK-OV-3 0.000392 µM | MDA-N 0.000121 µM

O=C(N/N=C/C=C/c1ccccc1)c1ccccc1Nc1ccccc1C(=O)N/N=C/C=C/c1ccccc1
inactive: M14 48 µM | HCC 2998 > 100 µM | U-251 20.8 µM | HCT-116 90.8 µM | MOLT-4 1.92 µM | MCF7 > 100 µM | PC-3 > 100 µM | SK-MEL-5 > 100 µM | BT-549 > 100 µM | RPMI-8226 > 100 µM | OVCAR-8 > 100 µM | ACHN > 100 µM | Hs-578T 41.1 µM | MDA-MB-231 49.5 µM | HT-29 > 100 µM | UO-31 > 100 µM | SNB-19 11.9 µM | SK-MEL-28 > 100 µM | T47D > 100 µM | NCI-H226 > 100 µM | SF-295 27.5 µM | OVCAR-5 > 100 µM | 786-0 > 100 µM | OVCAR-3 > 100 µM | Malme-3M > 100 µM | SR 12.8 µM | CCRF-CEM 12.5 µM | UACC-62 93.5 µM | HL-60 > 100 µM | KM12 > 100 µM | TK-10 > 100 µM | A549 > 100 µM | NCI-H23 > 100 µM | SF-268 34.4 µM | IGROV-1 > 100 µM | OVCAR-4 67.9 µM | SK-MEL-2 59.4 µM | NCI-H460 26.5 µM | DU-145 > 100 µM | HOP-92 67 µM | K562 > 100 µM | RXF 393 20.5 µM | COLO 205 > 100 µM | HOP-62 3.58 µM | SN12C > 100 µM | A498 > 100 µM | NCI/ADR-RES > 100 µM | SNB-75 21.4 µM | SW-620 > 100 µM | UACC-257 > 100 µM | EKVX > 100 µM | MDA-MB-435 > 100 µM | CAKI-1 > 100 µM | SK-OV-3 > 100 µM | MDA-N > 100 µM
> 100 µM: HCT-15
